# Test system: symptoms of diabetic gastroparesis
# Test: Phase 2 randomized, double-blind, placebo-controlled study METO-IN-002 of metoclopramide nasal spray: symptom scores (mGCSI-DD, GCSI-DD, PAGI-SYM, other endpoints)
# Type: in vivo, human
# Design: key to Stomach Fullness / Early Satiety / Feeling Full / Loss of Appetite / Bloating / Stomach Larger / Upper Abdominal Pain / Upper Abdominal Discomfort / mGCSI-DD (primary endpoint) / Nausea / Retching / Vomiting / Sheehan Disability Scales / Investigator Assessment of Overall Gastroparesis Severity / Subject Assessment of Overall Gastroparesis Severity / Investigator Assessment of Overall Treatment Effect / Subject Assessment of Overall Treatment Effect / Days w/o Vomiting / Days w/o Nausea / Days w/o Vomiting or Nausea / Days w/o Upper Abdominal Pain or Upper Abdominal Discomfort / Nausea Response by Response Threshold / GCSI-DD / Days w/o Vomiting or Retching &, No Use of Rescue Medication / Nausea Responder Analysis / Overall Severity of Gastroparesis Symptoms - Subject / PAGI-SYM Questionnaire / Nausea/Vomiting (listed under PAGI-SYM Questionnaire) / Bloating (listed under PAGI-SYM Questionnaire) / Upper Abdominal Pain/Discomfort (listed under PAGI-SYM Questionnaire) / Early Satiety (listed under PAGI-SYM Questionnaire): A=Favors Active; P=Favors Placebo
# Settings: for Statistically significant improvement in mGCSI-DD score (in words): 10 mg IN and 14 mg IN arms, Baseline to Week 4
# Procedure: Example 1: A Multicenter, Randomized, Double-Blind, Placebo-Controlled, Parallel Group, Dose-Ranging Clinical Study to Evaluate the Efficacy and Safety of Metoclopramide Nasal Spray Solution in Diabetic Subjects with Gastroparesis
# The objectives of this study were to evaluate the safety and the effectiveness of two doses of metoclopramide nasal spray solution, 10 mg and 14 mg, compared to placebo in reducing the symptoms of diabetic gastroparesis and to assess the plasma concentrations of two doses of metoclopramide nasal spray in subjects with diabetic gastroparesis following a single dose and at steady state. The aforementioned dosages for the treatment and control of gastroparesis were administered before meals and/or before bed time. Subjects who met the entry criteria after the Washout Period (Day −7 to Day −1) were randomized using an IVRS, to metoclopramide nasal spray 10 mg, 14 mg, or placebo, in roughly equal numbers (approximately 1:1:1) using a predetermined randomization schedule employing permuted blocks. Randomization was preformed centrally.
# Metoclopramide nasal spray solution, 200 mg/mL base (as monohydrochloride monohydrate) is a clear colorless to pale-yellow aqueous solution manufactured for Evoke Pharma. The metoclopramide nasal spray was packaged in a 10 mL amber glass vial mounted with a metered nasal spray pump. The metered dose vial delivered a 50 μL or 70 μL spray (10 mg or 14 mg of metoclopramide base respectively) with each actuation. One 10 mL vial contained sufficient metoclopramide nasal spray to deliver 120 doses of 10 mg or 14 mg.
# A vehicle control was used as the placebo for metoclopramide nasal spray solution. The placebo spray was packaged in a 10 mL amber glass vial mounted with a metered nasal spray pump. The metered dose vial delivered a 50 μL spray with each actuation. One 10 mL vial contained sufficient placebo to deliver 120 doses. The delivery of either a 50 μL or 70 μL spray is indistinguishable to the subject or study staff.
# A 7-day Washout Period preceded randomization. During this time, and for the duration of the study, subjects were asked to discontinue use of all medications that are known to ameliorate or exacerbate symptoms associated with diabetic gastroparesis. Subjects were trained on the use of an interactive voice response system (IVRS) to record the severity of nine gastroparesis symptoms of the GCSI-DD and additional symptoms such as: severity of abdominal pain and abdominal discomfort, number of hours of nausea, number of episodes of vomiting, and overall severity of gastroparesis symptoms in a daily diary. The IVRS was used during the treatment period for self-reported assessments. Subjects completed these diary assessments via the IVRS each evening.
# Subjects with a mean GCSI-DD total score of <2.0 or >4.0 during the 7-day Washout Period were excluded from the study.
# At the Randomization Visit (Day 0), the Patient Assessment of Upper Gastrointestinal Disorders Symptoms (PAGI-SYM) Questionnaire, and disability questionnaires were administered to the subject and the Investigator and subject assessed overall gastroparesis symptom severity (OGS) prior to taking study drug. Subjects began taking the study drug at the clinical site with a single dose on Day 0. The subjects returned to the clinic for safety and efficacy evaluations on Visits 4, 5, 6, and 7 (Days 7, 14, 21, and 28).
# At each scheduled study visit to the clinical study site, the IVRS daily diary compliance was reviewed. In addition, at Visit 5 (Day 14), the PAGI-SYM Questionnaire was administered to the subject and the Investigator and subject assessed OGS severity. At the Final Visit (Day 28) subjects took their last dose of study drug at the clinical site and returned their vial of unused/remaining study drug. The subject completed the PAGI-SYM, and disability questionnaires. The Investigator and subject assessed OGS and overall treatment effect (OTE). […]
# [1] = all subjects (ITT), 10 mg IN four times daily
# [2] = all subjects (ITT), 14 mg IN four times daily
# [3] = females, 10 mg IN four times daily
# [4] = females, 10 mg IN four times daily, Week 4, vs placebo
# [5] = females, 10 mg IN four times daily, listed as Metoclopramide
# [6] = females, 14 mg IN four times daily
# [7] = females, 14 mg IN four times daily, Week 4, vs placebo
smiles,measurement,setting,value
"CCN(CC)CCNC(=O)c1cc(Cl)c(N)cc1OC [metoclopramide, -amino-5-chloro-N-(2-(diethylamino)ethyl)-2-methoxybenzamide]",Mean Change from Baseline to Week 4 in mGCSI-DD,[1],−1.2
same,Mean mGCSI-DD total score at Week 4,[1],1.6
same,Mean Change from Baseline to Week 4 in mGCSI-DD,[2],−1.2
same,Mean mGCSI-DD total score at Week 4,[2],1.7
same,Statistically significant improvement in mGCSI-DD score (in words),all subjects,neither Treatment Arm experienced statistically significant improvement
same,"Difference of Least Square Means, mGCSI-DD change from Baseline to Week 4","all subjects, 10 mg IN vs placebo",−0.20
same,"Difference of Least Square Means, mGCSI-DD change from Baseline to Week 4","all subjects, 14 mg IN vs Metoclopramide 10 mg",0.06
same,"Difference of Least Square Means, mGCSI-DD change from Baseline to Week 4","all subjects, 14 mg IN vs placebo",−0.14
same,Symptoms with statistical separation or improved trends compared to placebo,"female subjects, 11 symptoms collected",11 of 11
same,Statistically significant improvement in mGCSI-DD score (in words),females,statistically significant improvement
same,Mean Change from Baseline to Week 4 in mGCSI-DD,[3],−1.2 (−1.2)
same,Mean mGCSI-DD total score at Week 4,[3],1.6 (1.6)
same,Bloating,[4],A
same,Bloating (listed under PAGI-SYM Questionnaire),[4],A
same,Days w/o Nausea,[4],A (p < 0.05)
same,Days w/o Upper Abdominal Pain or Upper Abdominal Discomfort,[4],A
same,Days w/o Vomiting,[4],A
same,Days w/o Vomiting or Nausea,[4],A (p < 0.05)
same,"Days w/o Vomiting or Retching &, No Use of Rescue Medication",[4],A
same,Early Satiety,[4],A
same,Early Satiety (listed under PAGI-SYM Questionnaire),[4],A
same,Feeling Full,[4],A (p < 0.05)
same,GCSI-DD,[4],A (p < 0.05)
same,Investigator Assessment of Overall Gastroparesis Severity,[4],A
same,Investigator Assessment of Overall Treatment Effect,[4],P
same,Loss of Appetite,[4],A
same,Nausea,[4],A (p < 0.05)
same,Nausea Responder Analysis,[4],A
same,Nausea Response by Response Threshold,[4],A (p < 0.05)
same,Nausea/Vomiting (listed under PAGI-SYM Questionnaire),[4],A
same,Overall Severity of Gastroparesis Symptoms - Subject,[4],A (p < 0.05)
same,PAGI-SYM Questionnaire,[4],A
same,Retching,[4],A
same,Sheehan Disability Scales,[4],A
same,Stomach Fullness,[4],A
same,Stomach Larger,[4],A
same,Subject Assessment of Overall Gastroparesis Severity,[4],A
same,Subject Assessment of Overall Treatment Effect,[4],A
same,Upper Abdominal Discomfort,[4],A
same,Upper Abdominal Pain,[4],A (p < 0.05)
same,Upper Abdominal Pain/Discomfort (listed under PAGI-SYM Questionnaire),[4],A
same,Vomiting,[4],A
same,mGCSI-DD (primary endpoint),[4],A (p < 0.05)
same,Mean Change from Baseline to Week 4 in mGCSI-DD,[5],−1.2
same,Mean mGCSI-DD total score at Week 4,[5],1.6
same,"Difference of Least Square Means, mGCSI-DD change from Baseline to Week 4","females, 10 mg IN vs placebo",−0.38
same,Mean Change from Baseline to Week 4 in mGCSI-DD,[6],−1.3
same,Mean mGCSI-DD total score at Week 4,[6],1.7 (1.7)
same,Bloating,[7],A
same,Bloating (listed under PAGI-SYM Questionnaire),[7],A
same,Days w/o Nausea,[7],A (p < 0.05)
same,Days w/o Upper Abdominal Pain or Upper Abdominal Discomfort,[7],P
same,Days w/o Vomiting,[7],A
same,Days w/o Vomiting or Nausea,[7],A (p < 0.05)
same,"Days w/o Vomiting or Retching &, No Use of Rescue Medication",[7],A
same,Early Satiety,[7],A
same,Early Satiety (listed under PAGI-SYM Questionnaire),[7],A
same,Feeling Full,[7],A
same,GCSI-DD,[7],A (p < 0.05)
same,Investigator Assessment of Overall Gastroparesis Severity,[7],A
same,Investigator Assessment of Overall Treatment Effect,[7],A
same,Loss of Appetite,[7],A
same,Nausea,[7],A (p < 0.05)
same,Nausea Responder Analysis,[7],A (p < 0.05)
same,Nausea Response by Response Threshold,[7],A (p < 0.05)
same,Nausea/Vomiting (listed under PAGI-SYM Questionnaire),[7],A (p < 0.05)
same,Overall Severity of Gastroparesis Symptoms - Subject,[7],A
same,PAGI-SYM Questionnaire,[7],A
same,Retching,[7],A
same,Sheehan Disability Scales,[7],A
same,Stomach Fullness,[7],A
same,Stomach Larger,[7],A (p < 0.05)
same,Subject Assessment of Overall Gastroparesis Severity,[7],A
same,Subject Assessment of Overall Treatment Effect,[7],A
same,Upper Abdominal Discomfort,[7],A
same,Upper Abdominal Pain,[7],A (p < 0.05)
same,Upper Abdominal Pain/Discomfort (listed under PAGI-SYM Questionnaire),[7],A
same,Vomiting,[7],A
